Laboratory results taken from US8703424B2, “Predicting human developmental toxicity of pharmaceuticals using human stem-like cells and metabolomics” (Stemina Biomarker Discovery, Inc., priority 2010, dated 2014).

Legend:
WA09 hESCs = assay: Random forest prediction of teratogenicity from metabolomics of spent media of dosed hESCs; format: cell-based, human; settings: blind study; model trained on TS1, 142 mass features; circulating dose
Description: WA09 hESCs, obtained from WiCell Research Institute (NIH National Stem Cell Bank, Madison, Wis.) were cultured in 6-well plates on Matrigel (BD Biosciences, San Jose, Calif.), in mTeSR1 medium (Stem Cell Technologies, Vancouver, BC) incubated at 37° C. under 5% CO2 in a Thermo Electron Form a Series II Water Jacket CO2 Incubator. hESCs were passaged every three or four days at a 1:3 or 1:6 seeding density for routine culture conditions. For dosing experiments, hESCs were passaged at a low density of 1:10 or 1:12 so that they would not require passaging during the […] dosing protocol. To passage hES cells, the StemPro® EZPassage™ disposable stem cell passaging tool (Invitrogen, Carlsbad, Calif.) was used to detach the cells from the wells. Detached cells were removed with a pipette and distributed to new Matrigel plates.
These medium controls provided baseline mass spectral data.
The 2.5 mL of spent media per well from Example 1 was added to 1.67 mL acetonitrile to make a 40% acetonitrile solution. The acetonitrile acts to “quench” the spent media sample, slowing or halting many metabolic processes and aiding in precipitation of cellular proteins. Samples were either stored at −80° C. for later analysis, or for immediate analysis, 250 μL of the quenched solution was mixed with 250 μL of water, to a final concentration of 20% acetonitrile, then added to a 3 kDa molecular weight cut-off filter spin column (Microcon YM-3 Centrifugal Filter, Millipore, Billerica, Mass.). Each sample was then centrifuged in an IEC CL31R Multispeed Centrifuge (Thermo Scientific, Waltham, Mass.) at 13,000×g at 4° C. for 200 minutes. Following centrifugation, the flow-through was saved then dried for several hours in a Savant High Capacity Speedvac Plus Concentrator. The concentrated sample was then dissolved in 50 μL of 0.1% formic acid prior to LC-MS analysis.
5 μl of each sample was injected.
Following LC-MS, chromatograms were inspected for reproducibility. LC-MS runs with total ion counts that vary by more than 25% were repeated to ensure that samples could be accurately compared. These runs were then used to create mass features that correspond to molecules detected across the different LC-MS runs. Mass features were extracted from the LC-MS data using MassHunter Qualitative Analysis software (Agilent Technologies). The following criteria were used as general guidelines, however some flexibility and optimization was needed. m/z values within the range of 75-1500, with a charge of +1 or −1, and a centroid height greater than 1000 were used to generate “mass features.” The mass peaks that pass these criteria were used to fit isotope and adduct (Na^+, K^+, and NH4^+) patterns corresponding to individual molecules, and to establish the abundance of each mass feature. The abundance is calculated by MassHunter software as the sum of the isotopic and adduct peaks that correspond to a single molecular feature. After data deconvolution, mass features showing at least two ions (e.g. (M^+H)^+ and (M^+H)^++1 or (M^+H)^+ and (M^+Na)^+) and an abundance value greater than 50000 for positive-ion mode data and 10000 in negative-ion mode data were included in the data set used for binning of the mass features.
Following feature selection by MassHunter, the data was further preprocessed by MassProfiler (Agilent) software which aligns mass features across multiple LC-MS data files. Mass features were generated for data from each drug treatment experiment (dosed and control) using the default alignment settings in MassProfiler with the requirement that a feature be present in at least 80% of the samples in one treatment. The mass feature datasets for each drug treatment experiment were further processed in a global manner using custom analysis scripts executed in the R statistical software environment. […]

WA09 hES cells = assay: Pathway enrichment analysis of annotated mass features on KEGG human metabolic networks (Example 8); format: cell-based; settings: across dose levels; positive and negative features
Description: Pathways enrichment analysis was performed by mapping annotated mass features for each experimental compound to human metabolic networks using KEGG compound ids. Hypergeometric p-values and false discovery rates (FDR) were used to assign a quantitative measure of statistical significance to each network. Features derived from ESI negative and positive mode for each experimental compound were pooled for this analysis. False positive results can be generated by isobaric compounds that generate multiple “hits” in a network from the same mass, so unique masses instead of unique compound ids were used for these calculations. The relevant parameters used to calculate hypergeometric p-values for each network were: the number of unique mass “hits”, the number of unique masses in the network, and the total number of unique masses in all of the human networks in the KEGG database. For each experimental compound, the p-values for the derived networks were converted to FDR using the Benjamini and Hochberg (1995) correction.
Feature Selection was performed on a per compound basis using a one-way anova evaluating the difference of dose level means and on a per dose basis using Welch T-tests and PLS-DA VIP score. […] If a feature was selected as interesting in a drug or dose level comparison it was then evaluated experiment wide for fold changes. Following feature selection only significant features putatively annotated as mammalian in origin and present on KEGG network diagrams were further evaluated. […] These selection criteria focused the analysis on biochemical pathways.
Following selection, features were passed through a quality control evaluation of extracted ion chromatograms (EICs) to confirm the validity of individual mass features. Features passing quality control were further evaluated to confirm estimated fold changes. After removing poor quality and duplicate features, the remaining ESI positive and ESI negative mode features were combined into a unified dataset for evaluation of pathway enrichment by treatment.

## CN(C)CCOC(C)(c1ccccc1)c1ccccn1 (stereo not shown) [Doxylamine]
WA09 hESCs
  Predicted teratogenicity (random forest statistical model): Non
WA09 hES cells
  Number of unique KEGG ID annotations: Alanine, aspartate and glutamate metabolism: 1
  Number of unique KEGG ID annotations: Arginine and proline metabolism: 1
  Number of unique KEGG ID annotations: Ascorbate and aldarate metabolism: 2
  Number of unique KEGG ID annotations: Citrate cycle (TCA cycle): 1
  Number of unique KEGG ID annotations: Cysteine and methionine metabolism: 2
  Number of unique KEGG ID annotations: Galactose metabolism: 2
  Number of unique KEGG ID annotations: Glutathione metabolism: 1
  Number of unique KEGG ID annotations: Glyoxylate and dicarboxylate metabolism: 3
  Number of unique KEGG ID annotations: Nicotinate and nicotinamide metabolism: 5
  Number of unique KEGG ID annotations: Pantothenate and CoA biosynthesis: 3
  Number of unique KEGG ID annotations: Pentose and glucuronate interconversions: 3
  Number of unique KEGG ID annotations: Pentose phosphate pathway: 1
  Number of unique KEGG ID annotations: Propanoate metabolism: 3
  Number of unique KEGG ID annotations: Pyruvate metabolism: 6
  Number of unique KEGG ID annotations: Vitamin B6 metabolism: 3
